# Source: patent US6239171A, “Tocotrienols and tocotrienol-like compounds and methods for their use” (Lipogenics, Inc., priority 1998, dated 2001)
# Columns and labels:
# [1] = molecular target: T1, Fatty Acid Synthase (Gallus gallus, UniProt P12276); assay: Fatty acid synthase activity in isolated chicken hepatocytes; assay type: cell-based
# T1 construct: hepatocytes isolated from livers of 8-week old female chickens; endogenous in cells; host or cells: primary chicken hepatocytes
# Experimental: (§1) This study measured the effects of three tocotrienols isolated from rice bran on cholesterol-related enzyme activity in hepatocytes isolated from livers of 8-week old female chickens. The chickens were fed the chick mash diet for 8 weeks. They were then fasted for 40 hours and finally refed for 48 hours before sacrifice. The hepatocytes were then prepared following standard methods.
# (§2) Each compound was isolated from TRF using the following protocol: A bond Elute amine column was equilibrated with 2 ml hexane. 10 mg of TRF (dissolved in 0.5 ml hexane) was bound to the amine column. The column was washed with 1 ml of hexane, then with 1 ml of 3% isopropanol in hexane. P-21 and P-25 were eluted off the column with 5% isopropanol in hexane. Then using 10% isopropanol in hexane, the impurity P-20 was eluted. α-tocotrienol was also tested.
# [2] = test system: cholesterol 7α-hydroxylase; assay: Cholesterol 7α-hydroxylase activity in isolated chicken hepatocytes; assay type: cell-based
# Experimental: as §1, §2
# [3] = test system: hypercholesterolemic swine; assay: Total cholesterol, triglyceride and glucose concentrations in tissues of hypercholesterolemic swine; assay type: in vivo
# Experimental: Each group of three 5-month old swine was administered either a control diet or a control diet supplemented with 50 ppm of TRF or 50 ppm of an individual tocotrienol. […] After a 12 hour fast, serum and plasma samples were taken a 0 hrs, 21 days and 42 days from the start of the feeding period. After taking serum and plasma samples from the pigs at the end of the 42 day period, all of the swine were fasted for a total of 40 hours, followed by a 48 hour refeeding period. One swine from each group was sacrificed at that time and the liver, intestine, lung, heart, loin muscle, adipose tissue and ham muscle were removed.
# We next determined the effect of tocotrienols on the total cholesterol, triglyceride and glucose concentrations in various tissues of hypercholesterolemic swine.
# [4] = test system: hypercholesterolemic swine; assay: Body weight gain and feed conversion efficiency in hypercholesterolemic swine; assay type: in vivo; details: control diet + 50 ppm
# Experimental: Each group of three 5-month old swine was administered either a control diet or a control diet supplemented with 50 ppm of TRF or 50 ppm of an individual tocotrienol. The samples were prepared as described in Example 11. After a 12 hour fast, serum and plasma samples were taken a 0 hrs, 21 days and 42 days from the start of the feeding period. After taking serum and plasma samples from the pigs at the end of the 42 day period, all of the swine were fasted for a total of 40 hours, followed by a 48 hour refeeding period. One swine from each group was sacrificed at that time and the liver, intestine, lung, heart, loin muscle, adipose tissue and ham muscle were removed.
# T1 sequence (P12276 2-2512 limits assumed): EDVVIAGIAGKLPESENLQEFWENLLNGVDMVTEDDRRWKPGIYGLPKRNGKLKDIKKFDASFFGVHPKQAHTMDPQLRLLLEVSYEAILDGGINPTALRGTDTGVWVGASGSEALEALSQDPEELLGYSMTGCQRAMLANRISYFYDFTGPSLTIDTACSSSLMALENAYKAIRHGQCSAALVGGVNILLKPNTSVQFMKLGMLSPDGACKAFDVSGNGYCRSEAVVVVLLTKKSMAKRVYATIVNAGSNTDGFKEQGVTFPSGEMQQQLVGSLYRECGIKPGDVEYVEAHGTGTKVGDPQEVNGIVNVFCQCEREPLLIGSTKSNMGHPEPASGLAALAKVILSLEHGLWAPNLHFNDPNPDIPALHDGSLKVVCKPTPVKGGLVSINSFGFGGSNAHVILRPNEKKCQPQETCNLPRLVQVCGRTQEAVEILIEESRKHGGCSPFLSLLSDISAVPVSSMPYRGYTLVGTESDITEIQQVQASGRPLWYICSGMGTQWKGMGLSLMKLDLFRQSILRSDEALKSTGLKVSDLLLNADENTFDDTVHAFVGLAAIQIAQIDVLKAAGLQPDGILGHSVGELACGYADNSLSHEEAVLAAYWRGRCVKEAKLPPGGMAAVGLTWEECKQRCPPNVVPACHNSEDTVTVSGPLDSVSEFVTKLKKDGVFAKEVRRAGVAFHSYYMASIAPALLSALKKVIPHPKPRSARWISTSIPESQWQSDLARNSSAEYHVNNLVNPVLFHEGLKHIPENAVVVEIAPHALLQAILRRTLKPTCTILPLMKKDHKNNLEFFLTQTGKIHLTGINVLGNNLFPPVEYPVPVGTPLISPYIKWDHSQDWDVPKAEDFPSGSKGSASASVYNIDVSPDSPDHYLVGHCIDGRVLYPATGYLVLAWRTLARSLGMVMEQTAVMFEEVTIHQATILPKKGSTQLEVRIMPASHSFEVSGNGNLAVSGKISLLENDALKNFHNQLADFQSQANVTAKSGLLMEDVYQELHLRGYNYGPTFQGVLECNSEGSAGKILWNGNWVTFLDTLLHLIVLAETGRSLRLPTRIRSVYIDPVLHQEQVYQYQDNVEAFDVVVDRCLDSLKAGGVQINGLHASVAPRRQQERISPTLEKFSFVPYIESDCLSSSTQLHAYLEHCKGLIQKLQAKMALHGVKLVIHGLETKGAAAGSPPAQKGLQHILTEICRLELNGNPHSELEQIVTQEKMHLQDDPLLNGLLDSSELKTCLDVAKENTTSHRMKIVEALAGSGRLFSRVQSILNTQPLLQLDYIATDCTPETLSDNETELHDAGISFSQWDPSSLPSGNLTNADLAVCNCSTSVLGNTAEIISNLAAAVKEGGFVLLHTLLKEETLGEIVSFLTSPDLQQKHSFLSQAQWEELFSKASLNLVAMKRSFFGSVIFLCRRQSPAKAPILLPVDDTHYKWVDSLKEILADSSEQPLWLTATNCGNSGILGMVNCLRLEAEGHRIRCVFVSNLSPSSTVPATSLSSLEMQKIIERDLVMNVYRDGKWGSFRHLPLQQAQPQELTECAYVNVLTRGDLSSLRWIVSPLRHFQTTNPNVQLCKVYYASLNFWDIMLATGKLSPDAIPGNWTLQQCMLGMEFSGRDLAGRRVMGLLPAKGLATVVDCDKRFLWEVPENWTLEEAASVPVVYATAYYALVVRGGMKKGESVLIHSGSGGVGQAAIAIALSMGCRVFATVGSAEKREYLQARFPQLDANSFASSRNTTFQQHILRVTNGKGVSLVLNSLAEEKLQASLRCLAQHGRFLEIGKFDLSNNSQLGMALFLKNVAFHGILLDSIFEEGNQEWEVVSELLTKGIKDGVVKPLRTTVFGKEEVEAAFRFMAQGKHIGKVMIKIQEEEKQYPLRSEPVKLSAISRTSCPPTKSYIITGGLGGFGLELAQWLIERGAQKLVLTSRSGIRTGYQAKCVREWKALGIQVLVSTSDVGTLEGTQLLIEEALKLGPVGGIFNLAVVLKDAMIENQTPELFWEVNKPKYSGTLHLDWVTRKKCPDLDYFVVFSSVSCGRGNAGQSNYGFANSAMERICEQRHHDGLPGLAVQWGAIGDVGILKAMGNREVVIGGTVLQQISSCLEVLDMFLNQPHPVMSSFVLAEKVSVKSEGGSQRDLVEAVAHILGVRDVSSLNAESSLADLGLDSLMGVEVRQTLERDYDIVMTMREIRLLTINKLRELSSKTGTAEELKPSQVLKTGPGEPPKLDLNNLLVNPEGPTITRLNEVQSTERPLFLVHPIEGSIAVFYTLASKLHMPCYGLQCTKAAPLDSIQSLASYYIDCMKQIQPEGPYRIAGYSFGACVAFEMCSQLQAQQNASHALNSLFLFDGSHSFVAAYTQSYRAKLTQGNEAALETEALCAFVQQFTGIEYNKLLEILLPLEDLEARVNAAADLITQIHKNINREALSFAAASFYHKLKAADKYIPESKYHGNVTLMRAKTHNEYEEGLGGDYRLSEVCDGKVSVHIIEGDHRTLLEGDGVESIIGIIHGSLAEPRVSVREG
smiles,measurement,setting,value
"CC(C)=CCC/C(C)=C/CC/C(C)=C/CCC1CCc2cc(O)ccc2O1 (stereo not shown) [P25, 3,4-dihydro-2-(4,8,12-trimethyltrideca-3'(E),7'(E),11'-trienyl)-2H-1-benzopyran-6-ol]",Fatty Acid Synthase,[1]; 10.0 μg/mL,16.2 nmol/min/mg
same,"Fatty Acid Synthase, percentage of 0.0 μg/mL",[1]; 10.0 μg/mL,94.2%
same,Fatty Acid Synthase,[1]; 20.0 μg/mL,14.3 nmol/min/mg
same,"Fatty Acid Synthase, percentage of 0.0 μg/mL",[1]; 20.0 μg/mL,83.1%
same,Fatty Acid Synthase,[1]; 40.0 μg/mL,12.7 nmol/min/mg
same,"Fatty Acid Synthase, percentage of 0.0 μg/mL",[1]; 40.0 μg/mL,73.8%
same,Fatty Acid Synthase,[1]; 80.0 μg/mL,12.1 nmol/min/mg
same,"Fatty Acid Synthase, percentage of 0.0 μg/mL",[1]; 80.0 μg/mL,70.3%
same,Cholesterol 7α-hydroxylase,[2]; 10.0 μg/mL,2.33 pmol/min/mg
same,"Cholesterol 7α-hydroxylase, percentage of 0.0 μg/mL",[2]; 10.0 μg/mL,100.9%
same,Cholesterol 7α-hydroxylase,[2]; 20.0 μg/mL,2.37 pmol/min/mg
same,"Cholesterol 7α-hydroxylase, percentage of 0.0 μg/mL",[2]; 20.0 μg/mL,102.61%
same,Cholesterol 7α-hydroxylase,[2]; 40.0 μg/mL,2.44 pmol/min/mg
same,"Cholesterol 7α-hydroxylase, percentage of 0.0 μg/mL",[2]; 40.0 μg/mL,105.6%
same,Cholesterol 7α-hydroxylase,[2]; 80.0 μg/mL,2.37 pmol/min/mg
same,"Cholesterol 7α-hydroxylase, percentage of 0.0 μg/mL",[2]; 80.0 μg/mL,102.6%
same,reduction of total cholesterol concentration in the ham muscle,[3]; 50 ppm in diet,30%
same,reduction of total cholesterol concentration in the liver,[3]; 50 ppm in diet,37%
same,"TOTAL CHOLESTEROL CONCENTRATION, Adipose Tissue","[3]; control diet + 50 ppm, 42 days",89.54 mg/100 gm
same,"TOTAL CHOLESTEROL CONCENTRATION, Ham Muscle","[3]; control diet + 50 ppm, 42 days",69.17 mg/100 gm
same,"TOTAL CHOLESTEROL CONCENTRATION, Heart","[3]; control diet + 50 ppm, 42 days",51.53 mg/100 gm
same,"TOTAL CHOLESTEROL CONCENTRATION, Intestine","[3]; control diet + 50 ppm, 42 days",176.67 mg/100 gm
same,"TOTAL CHOLESTEROL CONCENTRATION, Liver","[3]; control diet + 50 ppm, 42 days",125.21 mg/100 gm
same,"TOTAL CHOLESTEROL CONCENTRATION, Loin Muscle","[3]; control diet + 50 ppm, 42 days",99.04 mg/100 gm
same,"TOTAL CHOLESTEROL CONCENTRATION, Lung","[3]; control diet + 50 ppm, 42 days",68.5 mg/100 gm
same,"TOTAL CHOLESTEROL, Adipose Tissue, percentage of control","[3]; control diet + 50 ppm, 42 days",81.85%
same,"TOTAL CHOLESTEROL, Ham Muscle, percentage of control","[3]; control diet + 50 ppm, 42 days",69.17%
same,"TOTAL CHOLESTEROL, Heart, percentage of control","[3]; control diet + 50 ppm, 42 days",82.79%
same,"TOTAL CHOLESTEROL, Intestine, percentage of control","[3]; control diet + 50 ppm, 42 days",81.98%
same,"TOTAL CHOLESTEROL, Liver, percentage of control","[3]; control diet + 50 ppm, 42 days",62.11%
same,"TOTAL CHOLESTEROL, Loin Muscle, percentage of control","[3]; control diet + 50 ppm, 42 days",81.85%
same,"TOTAL CHOLESTEROL, Lung, percentage of control","[3]; control diet + 50 ppm, 42 days",66.98%
same,"TOTAL GLUCOSE CONCENTRATION, Adipose Tissue","[3]; control diet + 50 ppm, 42 days",14.96 mg/100 gm
same,"TOTAL GLUCOSE CONCENTRATION, Ham Muscle","[3]; control diet + 50 ppm, 42 days",53.05 mg/100 gm
same,"TOTAL GLUCOSE CONCENTRATION, Heart","[3]; control diet + 50 ppm, 42 days",45.49 mg/100 gm
same,"TOTAL GLUCOSE CONCENTRATION, Intestine","[3]; control diet + 50 ppm, 42 days",56.06 mg/100 gm
same,"TOTAL GLUCOSE CONCENTRATION, Liver","[3]; control diet + 50 ppm, 42 days",362.99 mg/100 gm
same,"TOTAL GLUCOSE CONCENTRATION, Loin Muscle","[3]; control diet + 50 ppm, 42 days",53.01 mg/100 gm
same,"TOTAL GLUCOSE CONCENTRATION, Lung","[3]; control diet + 50 ppm, 42 days",60.96 mg/100 gm
same,"TOTAL GLUCOSE, Adipose Tissue, percentage of control","[3]; control diet + 50 ppm, 42 days",81.57%
same,"TOTAL GLUCOSE, Ham Muscle, percentage of control","[3]; control diet + 50 ppm, 42 days",98.57%
same,"TOTAL GLUCOSE, Heart, percentage of control","[3]; control diet + 50 ppm, 42 days",92.37%
same,"TOTAL GLUCOSE, Intestine, percentage of control","[3]; control diet + 50 ppm, 42 days",77.89%
same,"TOTAL GLUCOSE, Liver, percentage of control","[3]; control diet + 50 ppm, 42 days",89.58%
same,"TOTAL GLUCOSE, Loin Muscle, percentage of control","[3]; control diet + 50 ppm, 42 days",74.41%
same,"TOTAL GLUCOSE, Lung, percentage of control","[3]; control diet + 50 ppm, 42 days",91.08%
same,"TOTAL TRIGLYCERIDES CONCENTRATION, Adipose Tissue","[3]; control diet + 50 ppm, 42 days",259.62 mg/100 gm
same,"TOTAL TRIGLYCERIDES CONCENTRATION, Ham Muscle","[3]; control diet + 50 ppm, 42 days",182.98 mg/100 gm
same,"TOTAL TRIGLYCERIDES CONCENTRATION, Heart","[3]; control diet + 50 ppm, 42 days",140.51 mg/100 gm
same,"TOTAL TRIGLYCERIDES CONCENTRATION, Intestine","[3]; control diet + 50 ppm, 42 days",345.37 mg/100 gm
same,"TOTAL TRIGLYCERIDES CONCENTRATION, Liver","[3]; control diet + 50 ppm, 42 days",384.00 mg/100 gm
same,"TOTAL TRIGLYCERIDES CONCENTRATION, Loin Muscle","[3]; control diet + 50 ppm, 42 days",189.18 mg/100 gm
same,"TOTAL TRIGLYCERIDES CONCENTRATION, Lung","[3]; control diet + 50 ppm, 42 days",163.42 mg/100 gm
same,"TOTAL TRIGLYCERIDES, Adipose Tissue, percentage of control activity","[3]; control diet + 50 ppm, 42 days",59.59%
same,"TOTAL TRIGLYCERIDES, Ham Muscle, percentage of control activity","[3]; control diet + 50 ppm, 42 days",98.44%
same,"TOTAL TRIGLYCERIDES, Heart, percentage of control activity","[3]; control diet + 50 ppm, 42 days",97.43%
same,"TOTAL TRIGLYCERIDES, Intestine, percentage of control activity","[3]; control diet + 50 ppm, 42 days",96.57%
same,"TOTAL TRIGLYCERIDES, Liver, percentage of control activity","[3]; control diet + 50 ppm, 42 days",89.44%
same,"TOTAL TRIGLYCERIDES, Loin Muscle, percentage of control activity","[3]; control diet + 50 ppm, 42 days",86.12%
same,"TOTAL TRIGLYCERIDES, Lung, percentage of control activity","[3]; control diet + 50 ppm, 42 days",95.03%
same,increase of feed conversion efficiency,[4],10%
